Results published in patent US11291624B2, “Compositions comprising active botanical ingredients” (CONOPCO, INC., priority 2018, dated 2022).

Test system: MelaKuits reconstructed human pigmented LSE model
Test: Inhibition of melanin in a living skin-equivalent (LSE) model
Format: cell-based
Settings: for Melanin content as % of control: UVB-exposed pigmented LSE, the lower the better
Description: Details of the test are as follows:
Materials: • MelaKuits®, a reconstructed human pigmented LSE model, derived from 3D culture of normal human epidermal keratinocytes and melanocytes from Asian donors.
The pigmented LSE model was exposed to UVB (50 mJ/cm^2) for seven consecutive days day at periodic intervals of 24 hours to stimulate the synthesis of melanin. The extracts were applied topically on each LSE model on day 4 and day 6 with an interval of 48 hours for refreshing. For comparison, a blank experiment was carried out in which the LSE was neither exposed to UV radiation nor was any extract applied thereon. A control experiment was also carried out in which the LSE model was exposed to UV radiation, but no other treatment was followed.
On day 8, the appearance of each LSE model was assessed by photographing them. Thereafter, all the models subjected to the test were separated from their respective inserts and placed on a white plastic plate with the stratum corneum side facing up. The luminance (L*) value was read using a spectrophotometer CM700 (Konica-Minolta). For each model, the luminance was measured thrice, and the mean value was calculated for comparison.

| SMILES | Melanin content as % of control (2.5 μM) | Melanin content as % of control (75 μM, topical on day 4 and day 6, read on day 8) | Effectiveness in reducing melanin content, in words (positive control, Table 2) |
| --- | --- | --- | --- |
| CC1(C)C=Cc2c(ccc3c2OC[C@@H](c2ccc(O)cc2O)C3)O1 [Glabridin] | 97.1 % of control | – | – |
| O=c1cc(CO)occ1O [Kojic acid] | – | 77.4 % of control | most effective ingredient |
